In publication PMC5059851, “Inhibition of Hedgehog-dependent tumors and cancer stem cells by a newly identified naturally occurring chemotype” (Cell Death & Disease, 2016):

Tests used:
human Smo D473H = target: T1, human Smo D473H (Homo sapiens, UniProt Q99835, D473H); experiment: Bodipy-Cyclopamine (BC) binding assay, HEK293T cells transfected with human Smo D473H; details: resistant Smo mutants versus WT
T1 construct: Myc-DDK; expressed in transfected cells; host or cells: HEK293T
Experimental: Cells were washed in PBS supplemented with 0.5% fetal bovine serum, fixed in 4% paraformaldehyde in phosphate-buffered saline (PBS) for 10 min, and incubated for 2 h at 37 °C both in the same medium supplemented with Bodipy-Cyclopamine (5 nM) and the studied compounds. The cells were permeabilized with Triton X100 (Sigma) 0.2%. Dako Fluorescent mounting (Dako, Carpinteria, CA, USA) was used as mounting medium and Hoechst reagent for staining of the cell nuclei. Bodipy (green) and Hoechst (blue) signals were analyzed in three to four representative fields per coverslip (× 20 magnification, 1000 cells/field). Data were expressed as percentage of BC incorporation observed with BC alone.[95]

[1] = test system: Hh pathway (Gli-responsive firefly luciferase reporter); experiment: Hh-dependent Gli-luciferase reporter assay in SAG-treated NIH3T3 Shh-Light II cells; format: cell-based; details: SAG (200 nM)-treated NIH3T3 Shh-Light II cells, 48 h, normalized to Renilla; N.A. = Not Active
Experimental: The inhibitory properties of the potential Smo antagonists 1–17 were investigated in a luciferase reporter assay that is widely used for characterizing Hh inhibitors. NIH3T3 Shh-Light II cells, stably incorporating a Gli-responsive firefly luciferase reporter (Gli-RE),[25] were treated with the synthetic Smo agonist SAG[24] alone or in combination with the selected small molecules to evaluate their dose–response ability to suppress Hh pathway. […] We excluded the possibility that inhibition activity in this assay was mediated by cytotoxicity because no decrease was shown in the luciferase assay control Renilla as observed instead for 13–17.
The luciferase assay was performed in Shh-Light II cells, stably incorporating a Gli-responsive luciferase reporter and the pRL-TK Renilla (normalization control), treated for 48 h with SAG (200 nM) and the studied compounds. Luciferase and Renilla activity were assayed with a dual-luciferase assay system according to the manufacturer's instruction (Biotium Inc., Hayward, CA, USA). Results are expressed as luciferase/Renilla ratios and represent the mean±S.D. of three experiments, each performed in triplicate.

T1 sequence (Q99835 28-787 D473H): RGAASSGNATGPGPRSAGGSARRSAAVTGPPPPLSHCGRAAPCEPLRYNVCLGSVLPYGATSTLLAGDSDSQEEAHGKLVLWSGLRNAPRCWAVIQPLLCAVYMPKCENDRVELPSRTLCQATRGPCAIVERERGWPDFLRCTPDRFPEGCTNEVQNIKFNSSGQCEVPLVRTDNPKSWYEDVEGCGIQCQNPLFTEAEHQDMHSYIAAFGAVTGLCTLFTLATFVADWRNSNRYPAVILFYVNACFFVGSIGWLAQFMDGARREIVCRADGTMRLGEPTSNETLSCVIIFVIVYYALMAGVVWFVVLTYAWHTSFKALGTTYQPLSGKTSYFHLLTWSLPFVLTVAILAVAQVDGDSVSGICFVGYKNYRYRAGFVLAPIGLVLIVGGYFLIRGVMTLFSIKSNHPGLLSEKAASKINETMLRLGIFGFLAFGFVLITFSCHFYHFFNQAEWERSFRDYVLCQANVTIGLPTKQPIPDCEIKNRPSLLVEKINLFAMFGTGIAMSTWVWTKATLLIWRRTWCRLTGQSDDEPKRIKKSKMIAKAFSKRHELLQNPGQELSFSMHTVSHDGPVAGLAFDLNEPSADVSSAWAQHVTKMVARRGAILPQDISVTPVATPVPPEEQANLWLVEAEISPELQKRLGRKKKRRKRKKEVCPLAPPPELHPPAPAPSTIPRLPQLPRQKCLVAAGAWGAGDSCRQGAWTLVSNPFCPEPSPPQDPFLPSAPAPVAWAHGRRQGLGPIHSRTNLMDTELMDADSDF

Row | Molecule | loss of affinity for the resistant Smo mutants in binding assay (human Smo D473H) | IC50 [1] [µM]
1 | CS(=O)(=O)c1ccc(C(=O)Nc2ccc(Cl)c(-c3ccccn3)c2)c(Cl)c1 [Vismodegib, reference compound] | about 1000 fold | –
2 | 3-benzo[1,3]dioxol-5-yl-1-(2,4,5-trimethoxy-phenyl)-propan-1-one [Compound 7] | – | 38.5 ± 3.57
3 | COc1cc(OC)c2c(=O)c(-c3ccc4c(c3)OCO4)coc2c1 [Compound 9, 3-(1,3-benzodioxol-5-yl)-5,7-dimethoxy-4H-chromen-4-one] | – | 24.1 ± 1.6
4 | CC1=C[C@@H]2c3c(O)cc(/C=C/c4ccc(O)cc4O)cc3OC3(c4ccc(O)c5c4OC(C)(C)C=C5)Oc4cc(O)ccc4[C@@H](C1)[C@H]23 (stereo partly drawn) [Compound 6, (3aS,13bS,13cR)-6-[(E)-2-(2,4-dihydroxyphenyl)vinyl]-8a-(5-hydroxy-2,2-dimethyl-2H-chromen-8-yl)-2-methyl-1,8a,13b,13c-tetrahydro-3aH-benzo[3,4]isochromeno[1,8-bc]chromene-4,11-diol] | – | 30 ± 1.93
5 | COc1ccc(C=CC(=O)c2c(OC)cc(OC)c(OC)c2OC)cc1OC [Compound 10, 3-(3,4-dimethoxy-phenyl)-1-(2,3,4,6-tetramethoxy-phenyl)-2-propen-1-one] | – | 31.3 ± 2.29
6 | COc1c(C2COc3cc(O)c(CC=C(C)C)c(O)c3C2=O)ccc(O)c1CC=C(C)C (stereo not shown) [Compound 11, 5,7-dihydroxy-3-[4-hydroxy-2-methoxy-3-(3-methyl-2-buten-1-yl)phenyl]-6-(3-methyl-2-buten-1-yl)-2,3-dihydro-4H-chromen-4-one] | – | 22.6
7 | CC(C)=CCc1c(O)ccc(C(=O)[C@H]2[C@@H](c3c(O)cc(/C=C/c4ccc(O)cc4O)cc3O)C=C(C)C[C@@H]2c2ccc(O)cc2O)c1O [Compound 8, [2,4-dihydroxy-3-(3-methyl-2-buten-1-yl)phenyl][(1R,2S,6S)-6-(2,4-dihydroxyphenyl)-2-{4-[(E)-2-(2,4-dihydroxyphenyl)vinyl]-2,6-dihydroxyphenyl}-4-methyl-3-cyclohexen-1-yl]methanone] | – | 27.5 ± 2.67
